One data set concerns the target T1, ALDH1A3 (Homo sapiens, UniProt P47895).
T1 construct: expressed in transfected cells; host or cells: MDA-MB-231
T1 sequence (P47895 1-512): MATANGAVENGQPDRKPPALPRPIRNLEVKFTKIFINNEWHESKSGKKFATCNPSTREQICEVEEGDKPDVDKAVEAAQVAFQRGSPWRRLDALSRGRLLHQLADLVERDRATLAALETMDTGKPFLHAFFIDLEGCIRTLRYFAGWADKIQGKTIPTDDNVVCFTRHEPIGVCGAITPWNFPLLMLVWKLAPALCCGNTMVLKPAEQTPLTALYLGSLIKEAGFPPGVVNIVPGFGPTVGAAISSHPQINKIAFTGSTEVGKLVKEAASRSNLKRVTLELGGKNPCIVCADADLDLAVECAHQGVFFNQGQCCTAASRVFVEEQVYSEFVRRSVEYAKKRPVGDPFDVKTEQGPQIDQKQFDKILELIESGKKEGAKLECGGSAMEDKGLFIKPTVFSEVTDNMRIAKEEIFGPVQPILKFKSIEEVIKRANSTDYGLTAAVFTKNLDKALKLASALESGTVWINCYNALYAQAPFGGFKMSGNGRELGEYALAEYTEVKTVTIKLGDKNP
Description: Aldefluor test in MDA-MB-231 cells overexpressing ALDH1A3. In kind it is cell-based. The settings on record: for IC50: Aldefluor test; for Inhibition of ALDH1A3-induced Aldefluor activity: dilution series of compound. The procedure: (§1) In vitro assays were conducted on breast cancer cell lines MDA-MB-231, MDA-MB-468, and HCC1806 cells. Specifically, the MDA-MB-231 cell line, characterized by a low expression of ALDH1A, was used as such or after being engineered to overexpress the ALDH1A1 or ALDH1A3 isoform, while the MDA-MB-468 and HCC1806 cell lines, characterized by a high expression of ALDH1A3 were used as such or after being knocked down for the ALDH1A3 isoform (FIG. 1). […] The experiments were conducted using the Aldefluor® test, specific for aldehyde dehydrogenases.

Another data set has as its target T2, ALDH1A1 (Homo sapiens, UniProt P00352).
T2 construct: expressed in transfected cells; host or cells: MDA-MB-231
T2 sequence (P00352 1-501): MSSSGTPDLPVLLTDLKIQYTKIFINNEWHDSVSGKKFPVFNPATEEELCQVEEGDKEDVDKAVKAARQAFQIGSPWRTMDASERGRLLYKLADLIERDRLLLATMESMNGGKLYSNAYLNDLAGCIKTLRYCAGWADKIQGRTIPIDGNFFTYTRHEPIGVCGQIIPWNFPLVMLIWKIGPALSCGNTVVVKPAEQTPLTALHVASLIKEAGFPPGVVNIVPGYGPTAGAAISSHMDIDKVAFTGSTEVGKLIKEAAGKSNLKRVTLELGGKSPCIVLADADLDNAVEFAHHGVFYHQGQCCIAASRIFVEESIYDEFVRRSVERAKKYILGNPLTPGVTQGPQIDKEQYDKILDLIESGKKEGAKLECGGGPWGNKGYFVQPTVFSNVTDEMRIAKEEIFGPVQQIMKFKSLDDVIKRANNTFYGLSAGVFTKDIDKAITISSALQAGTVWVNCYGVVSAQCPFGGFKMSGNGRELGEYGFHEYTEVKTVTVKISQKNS
The data set can be described thus: Aldefluor test in MDA-MB-231 cells overexpressing ALDH1A1. Format: cell-based. The procedure:
as §1

Data set [1] concerns ALDH1A3 target genes (RARB, DHRS3, ELF3, RARRES1). The data set can be described thus: Expression of ALDH1A3 target genes in breast cancer cell lines by QPCR. In kind it is cell-based. The conditions noted are these: 24 hours of treatment; for Expression of ALDH1A3 target genes in ALDH1A3-expressing lines: ALDH1A3-overexpressing MDA-MB-231, MDA-MB-468 and HCC1806 cells; for Expression of ALDH1A3 target genes in native line: native MDA-MB-231 cells. The method, then: FIGS. 5A, 5B, 5C. […] Expression of DHRS3, RARB, ELF3, and RARRES1 in MDA-MB-231 cells with ALDH1A3 overexpression (FIG. 5A), MDA-MB-468 cells (with ALDH1A3 shRNA knockdown as control, FIG. 5B), and HCC1806 (with ALDH1A3 shRNA knockdown as control, FIG. 5C) is determined 24 hours after treatment with 0, 1, 10, or 100 nM compound 1 by QPCR. Significance determined by one-way Anova, p-value […], <0.01=**, <0.001=***, <0.0001=****.
Subsequently, to confirm the direct inhibitory activity of the tested compounds on the enzymatic isoform of interest, their effect on the expression of ALDH1A3 target genes, and in particular of RARB, DHRS3, ELF3, and RARRES1, was investigated in the aforementioned cell lines.

The subject of another data set is MDA-MB-231 tumors. Description: Orthotopic MDA-MB-231 xenograft (native or ALDH1A3-overexpressing) in NOD/SCID mice. Format: in vivo. The settings on record: for RARB level in tumors (pharmacodynamic analysis): ALDH1A3-overexpressing MDA-MB-231 tumors harvested day 41, treatment from day 15. The method, then: (§2) In vivo experimentation then ensued. The in vivo assays were conducted using eight-week-old female NOD/SCID mice orthotopically injected with 2×10^6 native or ALDH1A3-overexpressing MDA-MB-231 cells. 60 female NOD-SCID mice had approximately 2,000,000 MDA-MB-231 cells injected into a 5th mammary fat pad. 30 mice were injected with MDA-MB-231 bearing a vector control (Groups 1-3), and 30 mice were injected with MDA-MB-231 bearing an ALDH1A3 overexpression vector (Groups 4-6). On day 15 of inoculation, the treatment phase began. Groups 1 and 4 (n=10, 10 respectively) received saline i.p. injections 100 uL every day for 26 days. Groups 2 and 5 (n=10, 10) received 0.4 mg/kg drug i.p. in 100 uL saline every day for 26 days. Groups 3 and 6 (n=10, 10) received 4.0 mg/kg drug i.p. in 100 uL saline every day for 26 days. Caliper measurements of tumors and body weights were taken throughout the treatment phase. After 26 days, all mice were euthanized, the tumors were harvested, and blood was drawn for analysis.
On day 15, the animals were treated with compound 1, administered daily intraperitoneally at a concentration of 0.4 mg/Kg or 4 mg/Kg, then constantly monitored for body weight increase (FIG. 7) and tumor volume (FIG. 8). Once the tumors became palpable, we started treatment of the animals (day 15). After 26 days of treatment, the animals were sacrificed and the tumors were collected and evaluated for size (FIGS. 8 and 9) and weight (FIG. 10).

Data set [2] can be described thus: Toxicity readouts in the xenograft study: body weight, serum ALT, serum creatinine. In kind it is in vivo, mice. The procedure:
as §2
This is evidenced by the trend over time of their body weight (FIG. 7) and also the analysis of alanine aminotransferase (ALT) and creatinine levels in serum collected from terminal animals (FIGS. 12A and 12B).

Setting [3] is: MDA-MB-231 cells overexpressing ALDH1A3.
The mark [4] stands for this setting: MDA-MB-231 cells with ALDH1A3 overexpression.
The mark [5] stands for this setting: daily treatment from day 15, measured on day 41, mice.

“Also recorded” adds a separate entry of the source.

As to `CC(=O)c1ccc(-c2cc(-c3ccc(C(C)=O)cc3)c3nc(-c4ccccc4)cn3c2)cc1` [Compound 1, 1,1′-((2-phenylimidazo[1,2-a]pyridine-6,8-diyl)bis(4,1-phenylene))bis(ethan-1-one)], at ALDH1A3 (setting [3]), the half-inhibitory concentration (IC50) was 1.9 nM. The “Inhibition of ALDH1A3-induced Aldefluor activity” value on ALDH1A3 (setting [4]) is listed as “inhibits Aldefluor activity”. Besides, the “Inhibition of Aldefluor assay activity of ALDH1A1” value on ALDH1A1 (100 uM) was “did not inhibit”. Besides, the “Inhibition of Aldefluor activity induced by ALDH1A1 overexpression” value at ALDH1A1 (all plotted concentrations) was “does not inhibit Aldefluor activity”. Besides, in data set [1], the “Expression of ALDH1A3 target genes in ALDH1A3-expressing lines” value was “statistically significantly reduced the expression of the target genes; also recorded: specifically inhibit the expression of ALDH1A3 target genes” and the “Expression of ALDH1A3 target genes in native line” value was “neither compound 1 nor compound 2 produced significant results”. Also, the “Tumor growth (volume, weight) induced by ALDH1A3” value in the data set with MDA-MB-231 tumors (0.4 or 4 mg/Kg i.p. daily for 26 days from day 15, NOD/SCID mice) is “reduce, in a statistically significant way, the increased tumor growth”. Besides, the “RARB level in tumors (pharmacodynamic analysis)” value with MDA-MB-231 tumors is given as “reduces ALDH1A3-inducible RARB expression”. The “RARB level in tumors (pharmacodynamic analysis)” value in the data set on MDA-MB-231 tumors (listed as compound 1) is “significantly reduced RARB level”. In addition, the “Toxicity (overall)” value in data set [2] (daily i.p. 0.4 or 4 mg/Kg for 26 days, mice) was “no detectable toxicity”. Also, in data set [2] (setting [5]), the “Serum alanine aminotransferase (ALT)” value was “does not affect” and the Serum creatinine entry is listed as “does not affect”. Moreover, the Body weight result in data set [2] (mice injected with MDA-MB-231 cells, treatment from day 15) is on record as “No significant changes were observed”.

In turn, `CC(=O)c1ccc(-c2cc(-c3ccc(C#N)cc3)cn3cc(-c4ccccc4)nc23)cc1` [Compound 2, 4-(8-(4-acetylphenyl)-2-phenylimidazo[1,2-a]pyridin-6-yl)benzonitrile] returned a half-inhibitory concentration (IC50) on ALDH1A3 (setting [3]) of 9.4 nM. Also, the “Inhibition of ALDH1A3-induced Aldefluor activity” value on ALDH1A3 (setting [4]) is listed as “inhibits Aldefluor activity”. For the same compound, in data set [1], the “Expression of ALDH1A3 target genes in ALDH1A3-expressing lines” value was “statistically significantly reduced the expression of the target genes” and the “Expression of ALDH1A3 target genes in native line” value was “neither compound 1 nor compound 2 produced significant results”.

For the compound `CCN(CC)c1ccc(C=O)cc1` [DEAB, 4-Diethylaminobenzaldehyde, reference compound], the “Inhibition of Aldefluor assay activity of ALDH1A3” value on ALDH1A3 (100 uM, MDA-MB-231 cells overexpressing ALDH1A3) is “inhibits”.

Take `c1ccc(-c2ccc3nc(-c4ccccc4)cn3c2)cc1` [GA11, reference compound]: at ALDH1A3 (setting [3]), the IC50 was about 100000 nM. On ALDH1A3 (MDA-MB-231 cells with ALDH1A3 overexpression, all other concentrations not distinguishable from control), the “Amounts distinguishable from control counts in the plot of Aldefluor count” value worked out at 100 µM. Besides, the “Inhibition of ALDH1A3-induced Aldefluor activity” value on ALDH1A3 (setting [4]) is reported as “inhibit”.

By IC50 is commonly meant the concentration that gives 50% inhibition.
